For orientation: pIC50 means the negative decadic logarithm of the IC50, by convention in mol/L.

pIC50: −log10 of the molar value. Some results are limits rather than exact numbers.

The target in this assay is KRasG12C (M1-K169, biotinylated on the N-terminus) (Homo sapiens (Human), UniProt P01116, G12C). The assay can be described thus: Covalent competition assay: scintillation proximity assay (SPA) quantifying covalent modification of KRASG12C. The assay is classed as binding. The settings on record: competition with radiolabeled covalent probe (Compound B/Compound A), 2 hours incubation, 10 nM KRasG12C. The method, then:
Cells were harvested by centrifugation and frozen at −80° C. until further processing. […] The cells were lysed by 4 passages through an Avestin Emulsiflex at about 20000 psi and insoluble debris removed by centrifugation and filtered through a 0.45 µm Durapore membrane (Millipore). […] Eluted protein fractions were analyzed by Novex NuPage 4-12% PAGE. […] The protein in the flow through was subjected to a final polishing step on a HiLoad 16/60 Superdex 200 prep grade size-exclusion column pre-equilibrated with SEC-buffer (20 mM HEPES pH 7.4, 150 mM NaCl, 5 mM MgCl2, 1 µM GDP). Positive fractions were determined by PAGE (Novex NuPage 4-12% BisTris) analysis.
A scintillation proximity assay (SPA) was used to determine the potency of the compounds.
This assay measures the ability of the test compound to compete with the radiolabeled covalent probe for binding to and covalently modify KRASG12C.
(see above for synthesis of Compound A and Compound B). A serial dilution of the compounds to be tested is mixed with a fixed concentration of the radiolabeled covalent probe before incubation with KRASG12C:GDP as described below. KRASG12C can either be bound by the radiolabeled covalent probe (Compound B), resulting in light being emitted from the beads, or bound by covalent test compound preventing signal generation.
A 1/20 isotopic dilution of labeled (Compound B) and non-labeled covalent (Compound A) probe was prepared and added to all wells on the plate. The reaction was started by addition of KRasG12C (M1-K169, biotinylated on the N-terminus) to the compounds and incubated for 2 hours with continuous agitation allowing for full modification of KRasG12C with probe or test compounds. Final concentrations in an assay volume of 40 μL were 10 nM KRasG12C, 25 nM radio-ligand and 475 nM unlabelled ligand. The assay buffer contained 20 mM Tris-HCl pH 7.5 (Invitrogen), 150 mM NaCl (Sigma Aldrich), 0.1 mM MgCl2 (Sigma Aldrich), and 0.01% Tween-20 (Sigma Aldrich). Following addition of 50 μL of a 400 μg/mL suspension of streptavidin-coated YSi beads (Perkin Elmer), plates were incubated for a further 30 min with continuous agitation before reading the plates on a scintillation counter (Topcount NXT 384 (Packard).
Evaluation was carried out using assay data analysis software (such as the standard Novartis in-house Helios software application, Novartis Institutes for BioMedical Research, unpublished) using the methods described in Formenko et al., Robust Regression for high-throughput screening, Computer Methods and Programs in Biomedicine, 2006, 82, 31-37. Following normalization of activity values for the wells to % inhibition (% inhibition=[(high control−sample)/(high control−low control)]×100), IC50 fitting was carried out from the duplicate determinations present on each plate according to Formenko et al., 2006.
Evaluation can also be carried out using commercially available software which is designed to derive IC50 values using 4-parameter fits (e.g. GraphPad Prism, XL fit).
(In general: In a scintillation proximity assay essentially only radioactivity close to the scintillant gives light.)
For the compound `C=CC(=O)N1CC2(CC(n3nc(N4CCN(CCOC)CC45CCC5)c(-c4c(Cl)c(Cl)cc5[nH]ncc45)c3C)C2)C1` (single isomer, unassigned) [Example 76a, 1-(6-(4-(5,6-dichloro-1H-indazol-4-yl)-3-(8-(2-methoxyethyl)-5,8-diazaspiro[3.5]nonan-5-yl)-5-methyl-1H-pyrazol-1-yl)-2-azaspiro[3.3]heptan-2-yl)prop-2-en-1-one], the negative logarithm of the IC50 (pIC50) was 6.45.
As to `C=CC(=O)N1CC2(CC(n3nc(N4CC[C@H](CN5CCOCC5)CC4(C)C)c(-c4c(Cl)c(Cl)cc5[nH]ncc45)c3C)C2)C1` (single isomer, unassigned) [Example 214b], the negative-log IC50 (pIC50) was 6.17.
`C=CC(=O)N1CC2(CC(n3nc(N4CC[C@@H](CN5CCN6C(=O)OCC6C5)CC4(C)C)c(-c4c(Cl)c(Cl)cc5[nH]ncc45)c3C)C2)C1` (single isomer, unassigned) [Example 312a]: the pIC50 was 6.08.
In the case of `C=CC(=O)N1CC2(CC(n3nc(N4CC[C@H](N(C)C(C)=O)CC4(C)C)c(-c4c(Cl)c(C)cc5[nH]ncc45)c3C)C2)C1` (single isomer, unassigned) [Example 70b] it was 6.00; in that of `C=CC(=O)N1CC2(CC(n3nc(N4CC[C@@H](CN5CC6(C5)CN(C)C(=O)N6C)CC4(C)C)c(-c4c(Cl)c(Cl)cc5[nH]ncc45)c3C)C2)C1` (single isomer, unassigned) [Example 296a], 6.41.
Take `C=CC(=O)N1CC2(CC(n3nc(N4CCN(C[C@@H]5COCCO5)C[C@]4(C)CC)c(-c4c(O)cccc4Cl)c3C)C2)C1` [Example 111, 1-(6-(3-((S)-4-(((R)-1,4-dioxan-2-yl)methyl)-2-ethyl-2-methylpiperazin-1-yl)-4-(2-chloro-6-hydroxyphenyl)-5-methyl-1H-pyrazol-1-yl)-2-azaspiro[3.3]heptan-2-yl)prop-2-en-1-one]: the pIC50 is 5.77.
As for `C=CC(=O)N1CC2(CC(n3nc(N4CCN(S(C)(=O)=O)CC4(C)C)c(-c4c(Cl)c(C)cc5[nH]ncc45)c3C)C2)C1` (single isomer, unassigned) [Example 126b, 1-(6-(4-(5-chloro-6-methyl-1H-indazol-4-yl)-3-(2,2-dimethyl-4-(methylsulfonyl)piperazin-1-yl)-5-methyl-1H-pyrazol-1-yl)-2-azaspiro[3.3]heptan-2-yl)prop-2-en-1-one], the pIC50 was 6.77.
With `C=CC(=O)N1CC2(CC(n3nc(N4CC[C@@H](CN5CCO[C@@H](CO)C5)CC4(C)C)c(-c4c(Cl)c(Cl)cc5[nH]ncc45)c3C)C2)C1` (single isomer, unassigned) [Example 247a], the pIC50 was 5.85.
In the case of `C=CC(=O)N1CC2(CC(n3nc(N4CC[C@@H](CN5CCN6C(=O)N(C)CC6C5)CC4(C)C)c(-c4c(Cl)c(Cl)cc5[nH]ncc45)c3C)C2)C1` (single isomer, unassigned) [Example 264a] it was 6.45; in that of `C=C(F)C(=O)N1CC2(CC(n3nc(N4CCN(C[C@@H]5COCCO5)C[C@]4(C)CC)c(-c4c(Cl)c(C)cc5[nH]ncc45)c3C)C2)C1` (single isomer, unassigned) [Example 174a], under 5.30; in that of `C=CC(=O)N1CC2(CC(n3nc(N4CC[C@@H](CN5CC6C5CCN6C5COC5)CC4(C)C)c(-c4c(Cl)c(Cl)cc5[nH]ncc45)c3C)C2)C1` (single isomer, unassigned) [Example 278b, 1-(6-(4-(5,6-dichloro-1H-indazol-4-yl)-3-((R)-2,2-dimethyl-4-(((1S*,5S*)-2-(oxetan-3-yl)-2,6-diazabicyclo[3.2.0]heptan-6-yl)methyl)piperidin-1-yl)-5-methyl-1H-pyrazol-1-yl)-2-azaspiro[3.3]heptan-2-yl)prop-2-en-1-one], 8.10.
As to `C=CC(=O)N1CC2(CC(n3nc(N4CCS(=O)(=O)CC4(C)C)c(-c4c(Cl)c(C)cc5[nH]ncc45)c3C)C2)C1` (single isomer, unassigned) [Example 82a, 1-(6-(4-(5-chloro-6-methyl-1H-indazol-4-yl)-3-(3,3-dimethyl-1,1-dioxidothiomorpholino)-5-methyl-1H-pyrazol-1-yl)-2-azaspiro[3.3]heptan-2-yl)prop-2-en-1-one], the negative logarithm of the IC50 (pIC50) was 4.30.
As for `C=CC(=O)N1CC2(CC(n3nc(N4CC[C@@H](CN(C)CC(=O)N5CCCC5)CC4(C)C)c(-c4c(Cl)c(Cl)cc5[nH]ncc45)c3C)C2)C1` (single isomer, unassigned) [Example 252b], the negative logarithm of the IC50 (pIC50) was 8.22.
With `C=CC(=O)N1CC2(CC(n3nc(N4CCN(CC(C)(C)O)CC45CCC5)c(-c4c(OC)c(Cl)cc5[nH]ncc45)c3C)C2)C1` [Example 168, 1-(6-(4-(6-chloro-5-methoxy-1H-indazol-4-yl)-3-(8-(2-hydroxy-2-methylpropyl)-5,8-diazaspiro[3.5]nonan-5-yl)-5-methyl-1H-pyrazol-1-yl)-2-azaspiro[3.3]heptan-2-yl)prop-2-en-1-one], the negative-log IC50 (pIC50) was 6.52.
Under `C=CC(=O)N1CC2(CC(n3nc(N4CCC(CN5CC6COCC6C5)CC4(C)C)c(-c4c(Cl)c(Cl)cc5[nH]ncc45)c3C)C2)C1` (single isomer, unassigned) [Example 226a, 1-(6-(4-(5,6-dichloro-1H-indazol-4-yl)-3-(2,2-dimethyl-4-((tetrahydro-1H-furo[3,4-c]pyrrol-5(3H)-yl)methyl)piperidin-1-yl)-5-methyl-1H-pyrazol-1-yl)-2-azaspiro[3.3]heptan-2-yl)prop-2-en-1-one] stands 6.92; under `C=CC(=O)N1CC2(CC(n3nc(N4CCC(CN5CCOCC5)CC4(C)CC)c(-c4c(Cl)c(C)cc5[nH]ncc45)c3C)C2)C1` (single isomer, unassigned) [Example 222a, 1-(6-(4-(5-chloro-6-methyl-1H-indazol-4-yl)-3-(2-ethyl-2-methyl-4-(morpholinomethyl)piperidin-1-yl)-5-methyl-1H-pyrazol-1-yl)-2-azaspiro[3.3]heptan-2-yl)prop-2-en-1-one], 5.96; under `C=CC(=O)N1CC2(CC(n3nc(N4CCC(N5C6CCC5COC6)CC4(C)C)c(-c4c(Cl)c(C)cc5[nH]ncc45)c3C)C2)C1` [Example 74a, 1-(6-(3-(4-((1R,5S)-3-oxa-8-azabicyclo[3.2.1]octan-8-yl)-2,2-dimethylpiperidin-1-yl)-4-(5-chloro-6-methyl-1H-indazol-4-yl)-5-methyl-1H-pyrazol-1-yl)-2-azaspiro[3.3]heptan-2-yl)prop-2-en-1-one], under 5.30.
On to `C=CC(=O)N1CC2(CC(n3nc(N4CCN(CCOC)C[C@]4(C)C(F)F)c(-c4c(Cl)c(C)cc5[nH]ncc45)c3C)C2)C1` (single isomer, unassigned) [Example 178a], for which the pIC50 is 5.41.
Consider `C=CC(=O)N1C[C@]2(C[C@H](n3nc(N4CCN(C[C@@H]5COCCO5)C[C@]4(C)CC)c(-c4c(Cl)c(C)cc5[nH]ncc45)c3C)C2)[C@H]1C` (single isomer, unassigned) [Example 200a], for which the pIC50 was under 5.30.
Take `C=CC(=O)N1CC2(CC(n3nc(N4CC[C@@H](CN5CCN(C6COC6)CC5)CC4(C)C)c(-c4c(C)c(Cl)cc5[nH]ncc45)c3C)C2)C1` (single isomer, unassigned) [Example 244b]: the pIC50 was 8.22.
`C=CC(=O)N1CC2(CC(n3nc(N4CC[C@@H](N(C)C(C)=O)CC4(C)C)c(-c4c(Cl)c(C)cc5[nH]ncc45)c3C)C2)C1` (single isomer, unassigned) [Example 69b]: the pIC50 was 7.82.
Under `C=CC(=O)N1CC2(CC(n3nc(N4CC[C@@H](CN5CC6(CCCN6C6COC6)C5)CC4(C)C)c(-c4c(Cl)c(Cl)cc5[nH]ncc45)c3C)C2)C1` (single isomer, unassigned) [Example 272a] stands under 5.30; under `C=CC(=O)N1CC2(CC(n3nc(N4CCC(N(CCOC)CCOC)CC45CCC5)c(-c4c(Cl)c(Cl)cc5[nH]ncc45)c3C)C2)C1` (single isomer, unassigned) [Example 80b, 1-(6-(3-(8-(bis(2-methoxyethyl)amino)-5-azaspiro[3.5]nonan-5-yl)-4-(5,6-dichloro-1H-indazol-4-yl)-5-methyl-1H-pyrazol-1-yl)-2-azaspiro[3.3]heptan-2-yl)prop-2-en-1-one], 8.15.

The record behind these values is patent publication US20240317721A1, “PYRAZOLYL DERIVATIVES AS INHIBITORS OF THE KRAS MUTANT PROTEIN” (NOVARTIS AG, priority 2021, published 2024).
